Like-named read-outs stand apart in the source and are kept apart here.
What was measured:
Assay type in all cases: in vivo
[1] = test system: Avena fatua (AVEFA); assay: Glasshouse assay for herbicidal activity, pre-/post-emergence (percentage phytotoxicity); details: Avena fatua, Rate 250 g/ha, 100%=total damage, 0%=no damage
Outline: (§1)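 Seeds sown in standard soil in pots, grown 1 day (pre-emergence) or ~12 days (post-emergence) before treatment. Glasshouse: warm species 24/18 °C, cool species 20/16 °C day/night, 16 h light, 65% humidity, watered twice daily. Visual phytotoxicity scored 15DAA (post) or 20DAA (pre); 0% none, 100% total damage.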

[2] = test system: Echinochloa crus-galli (ECHCG); assay: as above; details: Echinochloa crus-galli, Rate 250 g/ha, 100%=total damage, 0%=no damage
Outline: as §1

[3] = test system: Alopecurus myosuroides (ALOMY); assay: as above; details: Alopecurus myosuroides, Rate 250 g/ha, 100%=total damage, 0%=no damage
Outline: as §1

[4] = test system: Lolium perenne (LOLPE); assay: as above; details: Lolium perenne, Rate 250 g/ha, 100%=total damage, 0%=no damage
Outline: as §1

[5] = test system: wheat; assay: Post-emergence herbicidal activity against cereal crops (wheat) +/- safener, crop selectivity; details: 100%=total damage to plant, 0%=no damage; for Post-emergence herbicidal activity against wheat (percentage phytotoxicity), +CQC: 250 g/ha, plus safener cloquintocet-mexyl (CQC) applied at 50 g/ha; for percent phytotoxicity (crop damage) to wheat at 250 g/ha: Triticum aestivum, 360 h, without safener, read-out: Post-emergence herbicidal activity against wheat (percentage phytotoxicity), Wheat - CQC
Outline: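 Test plants raised in pots in a glasshouse (24/18 °C warm or 20/16 °C cool species day/night, 16 h light, 65% humidity) and treated post-emergence about 12 days after sowing. Visual percentage phytotoxicity scored 15 days after application (0% = no damage, 100% = total damage).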

[6] = post-emergence, 360 h, post-emergence, visual assessment 15 DAA, read-out: Post-emergence herbicidal activity (percentage phytotoxicity), AVEFA POST
[7] = pre-emergence, 480 h, pre-emergence, visual assessment 20 DAA, read-out: Pre-emergence herbicidal activity (percentage phytotoxicity), AVEFA PRE
[8] = post-emergence, 360 h, post-emergence, visual assessment 15 DAA, read-out: Post-emergence herbicidal activity (percentage phytotoxicity), ECHCG POST
[9] = pre-emergence, 480 h, pre-emergence, visual assessment 20 DAA, read-out: Pre-emergence herbicidal activity (percentage phytotoxicity), ECHCG PRE
[10] = 360 h, post-emergence, visual assessment 15 DAA, read-out: Post-emergence herbicidal activity (percentage phytotoxicity), ALOMY POST
[11] = 480 h, pre-emergence, visual assessment 20 DAA, read-out: Pre-emergence herbicidal activity (percentage phytotoxicity), ALOMY PRE
[12] = post-emergence, 360 h, post-emergence, visual assessment 15 DAA, read-out: Post-emergence herbicidal activity (percentage phytotoxicity), LOLPE POST
[13] = pre-emergence, 480 h, pre-emergence, visual assessment 20 DAA, read-out: Pre-emergence herbicidal activity (percentage phytotoxicity), LOLPE PRE

Compound | pest or weed control at 250 g/ha [1, 6] | pest or weed control at 250 g/ha [1, 7] | pest or weed control at 250 g/ha [2, 8] | pest or weed control at 250 g/ha [2, 9] | pest or weed control at 250 g/ha [3, 10] | pest or weed control at 250 g/ha [3, 11] | pest or weed control at 250 g/ha [4, 12] | pest or weed control at 250 g/ha [4, 13] | Post-emergence herbicidal activity against wheat (percentage phytotoxicity), +CQC [5] | percent phytotoxicity (crop damage) to wheat at 250 g/ha [5]
COc1ccc(C(=O)NC(=O)NCCC2CC(=O)C(c3c(C)cc(C)cc3C)C2=O)cc1 (centres unmarked) [Compound A57] | 50% | 0% | 80% | 100% | 90% | 80% | 100% | 70% | 20% | 80%
CC#Cc1cc(C)c(C2C(=O)CC(CCNC(=O)NC(C)(C)C)C2=O)c(C)c1 (centres unmarked) [Compound A23] | 100% | 100% | 100% | 100% | 90% | 100% | 90% | 100% | 80% | 90%
Cc1cc(C)c(C2C(=O)CC(CCNC(=O)NC(=O)c3c(Cl)cccc3Cl)C2=O)c(C)c1 (centres unmarked) [Compound A52] | 80% | 70% | 90% | 100% | 90% | 80% | 90% | 80% | 30% | 80%
Cc1cc(C)c(C2C(=O)CC(CCNC(=O)NC(=O)c3ccc(Cl)c(F)c3)C2=O)c(C)c1 (centres unmarked) [Compound A58] | 10% | 0% | 80% | 0% | 40% | 0% | 90% | 0% | 20% | 80%
Cc1cc(C)c(C2C(=O)CC(CCNC(=O)NC(C)(C)C)C2=O)c(C)c1 (centres unmarked) [Compound A5] | 90% | 80% | 100% | 90% | 80% | 100% | 90% | 90% | 20% | 50%
Cc1cc(C)c(C2C(=O)CC(CCNS(=O)(=O)c3ccccc3F)C2=O)c(C)c1 (centres unmarked) [Compound A76] | 20% | 0% | 40% | 40% | 20% | 30% | 60% | 70% | 0% | 0%
Cc1cc(-n2cc(Cl)cn2)cc(C)c1C1C(=O)CC(CCNC(=O)Nc2ncccn2)C1=O.Cl (centres unmarked) [Compound A32] | 100% | 50% | 100% | 80% | 80% | 70% | 60% | 60% | 10% | 60%
Cc1cc(C)c(C2C(=O)CC(CCNC(=O)NC(=O)c3ccc(C(F)(F)F)cc3F)C2=O)c(C)c1 (centres unmarked) [Compound A70] | 90% | 40% | 90% | 100% | 20% | 50% | 100% | 60% | 80% | 80%

Source: US10301295B2, “Herbicidal compounds” (Syngenta Participations AG, priority 2014, dated 2019)
